Test results published in paper PMC4728423, “Natural and synthetic flavonoid modulation of TRPC5 channels” (British Journal of Pharmacology, 2016).
Where two headings read alike, the source gives them in different places.

Experiments:
human TRPC5 [1] = target: T1, human TRPC5 (Homo sapiens, UniProt Q9UL62); assay: Whole-cell patch clamp of TRPC5-expressing (Tet+) HEK 293 cells; assay type: cell-based
T1 construct: expressed in transfected cells
T1 sequence (Q9UL62 1-973): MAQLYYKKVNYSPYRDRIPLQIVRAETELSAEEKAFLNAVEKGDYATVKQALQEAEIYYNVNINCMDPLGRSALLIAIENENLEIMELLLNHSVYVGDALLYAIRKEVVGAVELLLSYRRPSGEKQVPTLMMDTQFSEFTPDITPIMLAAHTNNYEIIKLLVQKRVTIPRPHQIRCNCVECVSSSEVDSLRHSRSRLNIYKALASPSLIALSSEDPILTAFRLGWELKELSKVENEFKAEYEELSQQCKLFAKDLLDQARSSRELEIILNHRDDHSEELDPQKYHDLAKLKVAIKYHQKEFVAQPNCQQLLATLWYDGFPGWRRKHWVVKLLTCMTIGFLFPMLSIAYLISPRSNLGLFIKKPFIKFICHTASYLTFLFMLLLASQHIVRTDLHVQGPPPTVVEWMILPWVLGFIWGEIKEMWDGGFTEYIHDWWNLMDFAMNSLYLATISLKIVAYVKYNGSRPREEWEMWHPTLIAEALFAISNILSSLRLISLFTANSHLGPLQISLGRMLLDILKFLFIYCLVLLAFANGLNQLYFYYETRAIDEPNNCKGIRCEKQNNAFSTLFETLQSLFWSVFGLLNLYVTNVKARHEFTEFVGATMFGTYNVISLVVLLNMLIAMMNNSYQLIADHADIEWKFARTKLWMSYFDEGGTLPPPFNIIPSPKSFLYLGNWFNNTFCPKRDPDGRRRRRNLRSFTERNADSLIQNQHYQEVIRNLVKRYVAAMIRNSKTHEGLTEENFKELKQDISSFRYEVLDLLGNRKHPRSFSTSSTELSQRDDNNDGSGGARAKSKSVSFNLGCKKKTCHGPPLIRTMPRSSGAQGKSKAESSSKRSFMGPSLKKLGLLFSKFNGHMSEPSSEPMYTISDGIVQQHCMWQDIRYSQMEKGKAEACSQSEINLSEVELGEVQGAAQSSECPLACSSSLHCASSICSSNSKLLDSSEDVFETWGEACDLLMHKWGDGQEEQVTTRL

[2] = target: endogenous TRPC5-containing channels (Mus musculus, UniProt Q9QX29); assay: Ca2+ entry through endogenous channels in differentiated 3T3-L1 cells; assay type: cell-based; settings: estimated
Procedure: The 3T3‐L1 cell line was obtained from the American Type Culture Collection and cultured in DMEM‐F12 containing 10% fetal calf serum (FCS), 100 U·mL^−1 penicillin and 100 μg·mL^−1 streptomycin. To induce differentiation, cells were grown to confluence, and 2 days post‐confluence, the medium was changed to a medium containing 5 μg·mL^−1 insulin, 0.25 μM dexamethasone and 0.5 mM IBMX with 10% FCS and antibiotics. After 48 h, medium was changed to a maintenance medium containing 5 μg·mL^−1 insulin, 10% FCS and antibiotics. Cells were fed with fresh maintenance medium every 2 days until the day of experiments. For all experiments, cells were differentiated for 12–16 days.
Induced (Tet+) and non‐induced (Tet−) cells were plated in poly‐d‐lysine‐coated black 96‐well plates (Corning, Corning, NY, USA) at a confluence of 90% 24 h before experimentation. […] Cells were washed three times with SBS before measurements were made at room temperature (21 ± 2 °C) on a 96‐well fluorescence plate reader (FlexStation II^384, Molecular Devices, Sunnyvale, CA, USA). […] Readings were made every 10 s. Fura‐2 measurements are shown as the fluorescence (F) ratio or change (Δ) in this ratio. Fluo‐4 and XRhod‐1 measurements are shown as absolute fluorescence in arbitrary units or changes in this fluorescence (ΔF). […]

Cav1.2 channels = tested on: Cav1.2 channels; design: method as in Saponara et al., 2011; settings: smooth muscle; ref Saponara et al., 2011; cited from earlier work
3T3-L1 cells = settings: cited from earlier work
human TRPC5 [3] = target: T1, human TRPC5; assay: Outside-out patch recordings from TRPC5 Tet+ cells; assay type: cell-based; settings: 10 μM compound, 100 μM Gd3+
human TRPC5 [4] = target: T1, human TRPC5; assay: Gd3+-evoked Ca2+ entry in TRPC5-expressing (Tet+) HEK 293 cells; assay type: cell-based; settings: for IC50: TRPC5 (Tet+) HEK 293, 50 μM Gd3+, fluo-4, 30 min pretreatment, read-out: IC50, inhibition of Gd3+-evoked Ca2+ entry; for effect on Gd3+-evoked Ca2+ entry (natural flavonoid screen): XRhod-1
BKCa channels = tested on: BKCa channels; design: method as in Cogolludo et al., 2007; Xu et al., 2008b; settings: ref Cogolludo et al., 2007; Xu et al., 2008b; cited from earlier work
[5] = tested on: GABA-evoked ionic currents; design: method as in Goutman et al., 2003; settings: ref Goutman et al., 2003; cited from earlier work

Sequence of endogenous TRPC5-containing channels (Q9QX29 whole entry): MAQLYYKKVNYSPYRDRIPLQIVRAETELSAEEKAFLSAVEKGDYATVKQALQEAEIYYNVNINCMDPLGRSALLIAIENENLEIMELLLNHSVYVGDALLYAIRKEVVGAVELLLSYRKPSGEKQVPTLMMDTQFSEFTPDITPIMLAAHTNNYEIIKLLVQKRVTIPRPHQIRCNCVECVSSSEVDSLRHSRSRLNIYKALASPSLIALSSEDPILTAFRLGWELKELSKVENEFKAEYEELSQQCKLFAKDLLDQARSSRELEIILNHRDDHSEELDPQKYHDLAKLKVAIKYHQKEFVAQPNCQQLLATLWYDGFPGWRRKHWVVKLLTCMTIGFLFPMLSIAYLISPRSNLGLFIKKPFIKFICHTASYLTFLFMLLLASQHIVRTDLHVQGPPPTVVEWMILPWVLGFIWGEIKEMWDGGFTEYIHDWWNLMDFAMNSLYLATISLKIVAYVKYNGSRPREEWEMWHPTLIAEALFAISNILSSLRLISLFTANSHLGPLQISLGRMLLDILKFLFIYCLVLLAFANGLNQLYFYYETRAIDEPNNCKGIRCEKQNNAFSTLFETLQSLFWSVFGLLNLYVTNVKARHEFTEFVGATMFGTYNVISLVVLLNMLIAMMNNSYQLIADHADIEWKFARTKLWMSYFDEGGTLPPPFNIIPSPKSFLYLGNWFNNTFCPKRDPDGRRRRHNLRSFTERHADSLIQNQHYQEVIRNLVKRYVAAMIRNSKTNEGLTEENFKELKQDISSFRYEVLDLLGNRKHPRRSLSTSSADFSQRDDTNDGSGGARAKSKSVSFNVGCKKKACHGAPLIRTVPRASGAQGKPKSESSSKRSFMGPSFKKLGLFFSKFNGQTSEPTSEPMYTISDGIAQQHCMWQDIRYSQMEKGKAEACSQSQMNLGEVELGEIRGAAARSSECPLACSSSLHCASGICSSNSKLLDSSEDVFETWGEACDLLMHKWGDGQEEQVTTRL
Sequence of endogenous TRPC5-containing channels (Q61056 whole entry partner): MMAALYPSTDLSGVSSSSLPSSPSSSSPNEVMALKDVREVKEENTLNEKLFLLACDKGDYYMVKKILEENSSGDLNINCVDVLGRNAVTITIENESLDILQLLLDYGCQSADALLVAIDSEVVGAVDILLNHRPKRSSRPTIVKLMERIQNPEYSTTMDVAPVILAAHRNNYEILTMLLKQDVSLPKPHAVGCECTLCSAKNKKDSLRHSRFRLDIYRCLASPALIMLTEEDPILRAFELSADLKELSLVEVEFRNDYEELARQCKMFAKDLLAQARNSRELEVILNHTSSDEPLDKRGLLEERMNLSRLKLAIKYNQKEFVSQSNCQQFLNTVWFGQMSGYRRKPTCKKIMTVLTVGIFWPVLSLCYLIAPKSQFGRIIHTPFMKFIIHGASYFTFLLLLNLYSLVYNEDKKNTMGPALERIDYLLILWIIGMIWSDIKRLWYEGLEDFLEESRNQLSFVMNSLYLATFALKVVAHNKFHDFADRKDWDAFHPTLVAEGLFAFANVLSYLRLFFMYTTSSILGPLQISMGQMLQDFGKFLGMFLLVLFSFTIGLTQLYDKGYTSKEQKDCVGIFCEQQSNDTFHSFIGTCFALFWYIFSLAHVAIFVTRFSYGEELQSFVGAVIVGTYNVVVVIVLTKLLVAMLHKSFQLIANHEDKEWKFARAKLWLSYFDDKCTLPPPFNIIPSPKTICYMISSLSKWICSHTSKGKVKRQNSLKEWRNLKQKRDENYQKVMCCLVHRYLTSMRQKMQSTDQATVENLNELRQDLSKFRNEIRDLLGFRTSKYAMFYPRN

For `NCCOB(c1ccccc1)c1ccccc1` [2‐aminoethoxydiphenylborate], which “effect on TRPC5 whole-cell current after galangin” value (human TRPC5 [1]; 75 μM, applied after Gd3+ and galangin) is on record?
Its value is “further inhibited the current”.

Which IC50 ([2]; fluo-4, 20 μM La3+, read-out: IC50 for inhibition of La3+-evoked Ca2+ entry) does the source give for `O=c1c(O)c(-c2ccccc2)oc2cc(O)cc(O)c12` [Galangin] here?
The IC50 was 6.05 µM.

And the IC50 ([2]; fluo-4, constitutive activity, read-out: IC50 for inhibition of basal Ca2+)?
The IC50 was 1.85 µM.

And the “effect on Gd3+-evoked TRPC5-mediated whole-cell current” value (human TRPC5 [1]; 10 μM compound, 30 μM Gd3+, Ca2+ or Ba2+ in bath)?
The value was “effective”.

What about the “time to effect on whole-cell current” value (human TRPC5 [1]; 10 μM, 30 μM Gd3+) of the same molecule?
The value was no more than 2 min.

What about the “effect on TRPC5 current stimulated by S1P” value (human TRPC5 [1]; whole-cell, 10 μM compound, 5 μM S1P) of the same molecule?
The value was “effective”.

And the reversibility on washout (human TRPC5 [1]; whole-cell, 10 μM, Gd3+-evoked current)?
The reversibility on washout was “not readily reversed on washout”.

And the “effect on Cav1.2 channels” value (Cav1.2 channels)?
The value was “inhibited”.

And the “effect in 3T3-L1 cells / on adipocyte differentiation” value (3T3-L1 cells; ref Jung et al., 2012)?
Its value is “anti‐adipogenic effects”.

And the “effect on TRPC5-mediated current in excised outside-out patches” value (human TRPC5 [3])?
Its value is “inhibited”.

And the “effect on Gd3+-evoked Ca2+ signal (natural product screen)” value (human TRPC5 [4]; 10 μM, 30 min pre-incubation, 50 μM Gd3+, fluo-4)?
The value was “inhibitory”.

What about the IC50 (human TRPC5 [4]) of the same molecule?
Its IC50 is 0.45 µM.

With `O=c1c(O)c(-c2ccc(O)cc2)oc2cc(O)cc(O)c12` [Kaempferol] as the molecule, how does the “effect on Cav1.2 channels” value (Cav1.2 channels) read?
The value was “stimulators”.

What about the “effect on BKCa channels” value (BKCa channels) of the same molecule?
Its value is “stimulated”.

What about the “effect on Gd3+-evoked Ca2+ entry (natural flavonoid screen)” value (human TRPC5 [4]; 10 μM, 50 μM Gd3+) of the same molecule?
Its value is “inhibitors”.

What about the IC50 (human TRPC5 [4]) of the same molecule?
The IC50 was 3.9 µM.

Which IC50 (human TRPC5 [4]) does the source give for `O=c1cc(-c2ccc(O)c(O)c2)oc2cc(O)cc(O)c12` [Luteolin] here?
Its IC50 is greater than 10 µM.

What does the source list for `O=c1c(O)c(-c2cc(O)c(O)c(O)c2)oc2cc(O)cc(O)c12` [Myricetin]?
effect on Cav1.2 channels (Cav1.2 channels): stimulators; IC50 (human TRPC5 [4]): > 10 µM

What does the source list for `O=c1c(O)c(-c2ccc(O)c(O)c2)oc2cc(O)cc(O)c12` [Quercetin]?
effect on GABA-evoked ionic currents [5]: inhibited; effect on Cav1.2 channels (Cav1.2 channels): stimulators; effect on 3T3-L1 cell growth and apoptosis (3T3-L1 cells; ref Hsu and Yen, 2006): inhibited; effect on BKCa channels (BKCa channels): stimulated; effect on Gd3+-evoked Ca2+ entry (natural flavonoid screen) (human TRPC5 [4]; 10 μM, 50 μM Gd3+): inhibitors; IC50 (human TRPC5 [4]): 6.5 µM
